What was measured:
[1] = target: Carbonic anhydrase 7 (Homo sapiens, UniProt P43166); assay: Binding affinity to recombinant human CA7 by DSF-based fluorescence thermal shift assay
[2] = target: Carbonic anhydrase 13 (Homo sapiens, UniProt Q8N1Q1); assay: Binding affinity to recombinant human CA13 by DSF-based fluorescence thermal shift assay
[3] = target: Carbonic anhydrase 1 (Homo sapiens, UniProt P00915); assay: Binding affinity to recombinant human CA1 by DSF-based fluorescence thermal shift assay
[4] = target: Carbonic anhydrase 14 (Homo sapiens, UniProt Q9ULX7); assay: Binding affinity to recombinant N-terminal His6x-tagged human CA14 (20 to 280 residues) catalytic domain expressed in Escherichia coli Rosetta 2 (DE3) by DSF-based fluorescence thermal shift assay
[5] = target: Carbonic anhydrase 5A, mitochondrial (Homo sapiens, UniProt P35218); assay: Binding affinity to recombinant full length C-terminal His6x-tagged human CA5A expressed in Escherichia coli BL21(DE3) by DSF-based fluorescence thermal shift assay
[6] = target: Carbonic anhydrase 4 (Homo sapiens, UniProt P22748); assay: Binding affinity to recombinant human CA4 by DSF-based fluorescence thermal shift assay
[7] = target: Carbonic anhydrase 5B, mitochondrial (Homo sapiens, UniProt Q9Y2D0); assay: Binding affinity to recombinant full length N-terminal His6x-tagged human CA5B expressed in Escherichia coli Rosetta 2 (DE3) by DSF-based fluorescence thermal shift assay
[8] = target: Carbonic anhydrase 6 (Homo sapiens, UniProt P23280); assay: Binding affinity to recombinant human CA6 by DSF-based fluorescence thermal shift assay
[9] = target: Carbonic anhydrase 3 (Homo sapiens, UniProt P07451); assay: Binding affinity to recombinant N-terminal His6x-tagged human CA3 (4 to 260 residues) expressed in Escherichia coli BL21(DE3) by DSF-based fluorescence thermal shift assay
[10] = target: Carbonic anhydrase 9 (Homo sapiens, UniProt Q16790); assay: Binding affinity to recombinant human CA9 by DSF-based fluorescence thermal shift assay
[11] = target: Carbonic anhydrase 12 (Homo sapiens, UniProt O43570); assay: Binding affinity to recombinant human CA12 by DSF-based fluorescence thermal shift assay
[12] = target: T1, Carbonic anhydrase 2 (Homo sapiens, UniProt P00918); assay: Binding affinity to recombinant human CA2 by DSF-based fluorescence thermal shift assay
[13] = target: T1, Carbonic anhydrase 2; assay: Binding affinity to recombinant human CA2 in pH 7 sodium phosphate buffer at 37 degC by isothermal titration calorimetry

Sequence of Carbonic anhydrase 3 (P07451 whole entry, the tested form may be a part): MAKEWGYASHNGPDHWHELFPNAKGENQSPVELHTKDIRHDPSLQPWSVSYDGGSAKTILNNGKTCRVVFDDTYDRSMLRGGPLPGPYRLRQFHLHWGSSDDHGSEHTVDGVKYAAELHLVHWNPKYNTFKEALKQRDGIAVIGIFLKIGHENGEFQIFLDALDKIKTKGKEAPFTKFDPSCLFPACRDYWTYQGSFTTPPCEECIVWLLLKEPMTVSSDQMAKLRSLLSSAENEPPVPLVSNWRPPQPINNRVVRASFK
Sequence of Carbonic anhydrase 14 (Q9ULX7 whole entry, the tested form may be a part): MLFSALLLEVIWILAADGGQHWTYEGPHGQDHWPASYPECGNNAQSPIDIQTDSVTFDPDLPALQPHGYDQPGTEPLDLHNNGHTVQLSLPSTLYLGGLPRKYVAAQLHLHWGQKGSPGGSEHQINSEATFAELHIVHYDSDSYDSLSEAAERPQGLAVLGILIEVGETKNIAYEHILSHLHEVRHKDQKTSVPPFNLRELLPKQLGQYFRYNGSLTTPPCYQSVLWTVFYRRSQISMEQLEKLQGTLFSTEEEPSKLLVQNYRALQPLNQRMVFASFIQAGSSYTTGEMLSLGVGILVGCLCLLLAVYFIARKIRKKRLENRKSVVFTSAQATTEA
Sequence of Carbonic anhydrase 12 (O43570 whole entry): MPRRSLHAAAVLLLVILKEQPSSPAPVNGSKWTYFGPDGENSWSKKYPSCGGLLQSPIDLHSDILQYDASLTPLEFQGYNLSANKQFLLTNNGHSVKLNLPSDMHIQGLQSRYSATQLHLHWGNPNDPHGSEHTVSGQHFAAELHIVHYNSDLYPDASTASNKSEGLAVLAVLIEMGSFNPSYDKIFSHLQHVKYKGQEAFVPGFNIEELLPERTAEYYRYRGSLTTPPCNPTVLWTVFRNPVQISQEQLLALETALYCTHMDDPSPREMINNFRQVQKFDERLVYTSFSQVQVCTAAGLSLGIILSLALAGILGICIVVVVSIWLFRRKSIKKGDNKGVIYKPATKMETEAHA
Sequence of Carbonic anhydrase 6 (P23280 whole entry, the tested form may be a part): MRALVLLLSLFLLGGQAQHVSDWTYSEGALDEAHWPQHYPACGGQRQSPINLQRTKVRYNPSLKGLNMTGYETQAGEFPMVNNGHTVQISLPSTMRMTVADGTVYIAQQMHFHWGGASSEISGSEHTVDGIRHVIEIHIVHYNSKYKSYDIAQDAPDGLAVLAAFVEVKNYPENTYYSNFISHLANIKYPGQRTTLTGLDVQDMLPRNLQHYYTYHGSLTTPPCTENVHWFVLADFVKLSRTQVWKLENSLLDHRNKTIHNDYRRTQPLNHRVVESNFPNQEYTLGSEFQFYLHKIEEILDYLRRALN
Sequence of Carbonic anhydrase 5B, mitochondrial (Q9Y2D0 whole entry): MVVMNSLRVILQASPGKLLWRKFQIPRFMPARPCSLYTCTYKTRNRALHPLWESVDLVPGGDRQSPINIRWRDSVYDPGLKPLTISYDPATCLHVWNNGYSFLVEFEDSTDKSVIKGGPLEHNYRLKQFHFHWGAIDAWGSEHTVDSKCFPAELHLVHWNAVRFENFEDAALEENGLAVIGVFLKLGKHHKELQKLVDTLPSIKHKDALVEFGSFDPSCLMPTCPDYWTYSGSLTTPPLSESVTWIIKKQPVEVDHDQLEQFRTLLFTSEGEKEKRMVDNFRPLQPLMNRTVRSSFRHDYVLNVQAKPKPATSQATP
Sequence of Carbonic anhydrase 1 (P00915 whole entry, the tested form may be a part): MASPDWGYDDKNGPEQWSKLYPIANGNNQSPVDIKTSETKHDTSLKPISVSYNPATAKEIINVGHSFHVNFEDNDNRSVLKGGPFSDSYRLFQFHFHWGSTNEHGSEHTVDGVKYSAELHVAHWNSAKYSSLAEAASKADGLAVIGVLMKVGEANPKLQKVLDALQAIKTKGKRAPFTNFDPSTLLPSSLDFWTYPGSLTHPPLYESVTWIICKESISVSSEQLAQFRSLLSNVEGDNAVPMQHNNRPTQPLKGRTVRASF
Sequence of Carbonic anhydrase 13 (Q8N1Q1 whole entry): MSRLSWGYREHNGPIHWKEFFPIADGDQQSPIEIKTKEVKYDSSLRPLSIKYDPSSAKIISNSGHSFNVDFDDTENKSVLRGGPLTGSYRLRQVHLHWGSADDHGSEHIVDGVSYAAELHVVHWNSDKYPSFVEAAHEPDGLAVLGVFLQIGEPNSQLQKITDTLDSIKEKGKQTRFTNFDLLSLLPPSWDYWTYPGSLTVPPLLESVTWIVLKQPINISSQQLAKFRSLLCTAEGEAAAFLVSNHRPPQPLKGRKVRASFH
Sequence of Carbonic anhydrase 4 (P22748 whole entry): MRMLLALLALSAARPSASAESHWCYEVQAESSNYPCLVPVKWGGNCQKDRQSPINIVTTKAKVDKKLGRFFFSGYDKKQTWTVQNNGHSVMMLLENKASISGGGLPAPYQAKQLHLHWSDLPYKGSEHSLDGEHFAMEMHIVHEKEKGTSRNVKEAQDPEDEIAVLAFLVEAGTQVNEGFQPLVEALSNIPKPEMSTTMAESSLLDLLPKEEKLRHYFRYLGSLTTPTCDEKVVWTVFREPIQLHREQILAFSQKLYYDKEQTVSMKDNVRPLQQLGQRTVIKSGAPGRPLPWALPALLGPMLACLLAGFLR
Sequence of Carbonic anhydrase 5A, mitochondrial (P35218 whole entry): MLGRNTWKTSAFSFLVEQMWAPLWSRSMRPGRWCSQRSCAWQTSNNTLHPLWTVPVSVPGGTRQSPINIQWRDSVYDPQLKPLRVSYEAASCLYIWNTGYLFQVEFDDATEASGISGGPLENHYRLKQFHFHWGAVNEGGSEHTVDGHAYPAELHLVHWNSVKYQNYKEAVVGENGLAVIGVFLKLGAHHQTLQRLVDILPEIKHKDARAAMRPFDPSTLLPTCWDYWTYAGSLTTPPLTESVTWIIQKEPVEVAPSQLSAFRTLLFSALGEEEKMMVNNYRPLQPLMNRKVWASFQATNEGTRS
Sequence of Carbonic anhydrase 7 (P43166 whole entry): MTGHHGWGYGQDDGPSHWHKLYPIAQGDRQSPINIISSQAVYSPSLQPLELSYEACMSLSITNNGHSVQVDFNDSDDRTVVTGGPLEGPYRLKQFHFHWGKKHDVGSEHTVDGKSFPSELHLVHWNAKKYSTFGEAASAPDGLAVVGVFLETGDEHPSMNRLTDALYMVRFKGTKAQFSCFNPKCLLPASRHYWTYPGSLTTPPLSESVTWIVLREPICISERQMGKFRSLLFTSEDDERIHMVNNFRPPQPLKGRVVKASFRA

Compound | Kd [1] [nM] | Kd [2] [nM] | Kd [3] [nM] | Kd [4] [nM] | Kd [5] [nM] | Kd [6] [nM] | Kd [7] [nM] | Kd [8] [nM] | Kd [9] [nM] | Kd [10] [nM] | Kd [11] [nM] | Kd [12] [nM] | Kd [13] [nM]
Cc1cc(N2CC(C(=O)O)CC2=O)cc(C)c1S(N)(=O)=O (stereo not drawn) | 20000 | 8300 | 20000 | 3200 | 8300 | 5900 | 3300 | 25000 | ≥ 200000 | 5000 | 7700 | 12000 | 
Cc1cc(N2CC(C(=O)NN)CC2=O)cc(C)c1S(N)(=O)=O (stereo not drawn) | 50000 | 100000 | 17000 | 5000 | 20000 | 9100 | 1400 | 50000 | ≥ 200000 | 13000 | 50000 | 11000 | 
Cc1cc(S(N)(=O)=O)c(C)cc1N1CC(C(=O)O)CC1=O (stereo not drawn) | 2700 | 670 | 38000 | 3900 |  | 19000 | 1100 | 22000 | 160000 | 2600 | 8100 | 6400 | 
Cc1cc(N2CC(C(=O)N/N=C/c3ccccc3)CC2=O)cc(C)c1S(N)(=O)=O (stereo not drawn) | 30000 | 22000 | 2200 | 2000 | 2000 | 5000 | 710 | 25000 | ≥ 200000 | 2000 | 29000 | 2200 | 
Cc1cc(C)n(C(=O)C2CC(=O)N(c3cc(C)c(S(N)(=O)=O)c(C)c3)C2)n1 (stereo not drawn) | 3300 | 3700 | 1500 |  |  | 6000 | 500 | 28000 | ≥ 200000 | 2000 | 8300 | 910 | 318
NS(=O)(=O)c1ccc(N2CC(C(=O)N/N=C/c3ccccc3)CC2=O)cc1 (stereo not drawn) | 500 | 830 | 630 | 200 | 1700 | 1300 | 1300 | 2000 | ≥ 200000 | 59 | 2500 | 170 | 
Cc1cc(S(N)(=O)=O)c(C)cc1N1CC(C(=O)NN)CC1=O (stereo not drawn) | 4400 | 2800 | 58000 | 4000 |  | 14000 | 660 | 24000 | ≥ 200000 | 9000 | 21000 | 8100 | 
Cc1cc(S(N)(=O)=O)c(C)cc1N1CC(C(=O)N/N=C/c2ccc([N+](=O)[O-])cc2)CC1=O (stereo not drawn) | 1300 | 320 | 6200 |  |  | 17000 | 28 | 9900 | ≥ 200000 | 1100 | 14000 | 2100 | 
NNC(=O)C1CC(=O)N(c2ccc(S(N)(=O)=O)cc2)C1 (stereo not drawn) | 670 | 7700 | 3300 | 910 | 50000 | 2200 | 10000 | 10000 | ≥ 200000 | 630 | 4000 | 500 | 
NS(=O)(=O)c1ccc(N2CC(C(=O)O)CC2=O)cc1 (stereo not drawn) | 460 |  | 4200 | 720 |  | 2500 | 4700 | 6700 | ≥ 200000 | 330 | 2000 | 500 | 
Cc1cc(S(N)(=O)=O)c(C)cc1N1CC(C(=O)N/N=C/c2ccccc2)CC1=O (stereo not drawn) | 1900 | 420 | 7100 | 470 |  | 7600 | 28 | 9600 | ≥ 200000 | 1400 | 9300 | 1300 | 
Cc1cc(N2CC(c3n[nH]c(=S)n3-c3ccccc3)CC2=O)cc(C)c1S(N)(=O)=O (stereo not drawn) | 5400 | 2000 | 2500 |  |  | 7000 | 770 | 41000 | ≥ 200000 | 1400 | 10000 | 2000 | 
Cc1cc(N2CC(C(=O)NNC(=S)Nc3ccccc3)CC2=O)cc(C)c1S(N)(=O)=O (stereo not drawn) | 6500 | 1000 | 910 |  |  | 6900 | 770 | ≥ 200000 | ≥ 200000 | 1400 | 5000 | 1100 | 
Cc1cc(N2CC(C(=O)N/N=C/c3ccc([N+](=O)[O-])cc3)CC2=O)cc(C)c1S(N)(=O)=O (stereo not drawn) | 33000 | 17000 | 1000 |  |  | 4700 | 400 | 10000 | ≥ 200000 | 2000 | 22000 | 1700 | 

Compounds with a lower Kd [1], results first:

Kd [1] [nM] | Kd [2] [nM] | Kd [3] [nM] | Kd [4] [nM] | Kd [5] [nM] | Kd [6] [nM] | Kd [7] [nM] | Kd [8] [nM] | Kd [9] [nM] | Kd [10] [nM] | Kd [11] [nM] | Kd [12] [nM] | Kd [13] [nM] | Compound
130 | 1100 | 1000 | 96 |  | 1500 | 3300 | 94 | ≥ 200000 | 170 | 4000 | 150 |  | COC(=O)C1CC(=O)N(c2ccc(S(N)(=O)=O)cc2)C1 (stereo not drawn)
31 | 580 | 11000 | 840 |  | 10000 | 180 | 29000 | ≥ 200000 | 1600 | 12000 | 1600 |  | COC(=O)C1CC(=O)N(c2cc(C)c(S(N)(=O)=O)cc2C)C1 (stereo not drawn)
33 | 33 | 560 | 12 |  | 770 | 20 | 1400 | ≥ 200000 | 100 | 770 | 56 |  | Cc1cc(N2CC(C(=O)N/N=C/c3ccccc3)CC2=O)c(Cl)c(C)c1S(N)(=O)=O (stereo not drawn)
56 | 220 | 4300 |  |  | 360 | 530 | 6300 | 110000 | 290 | 1300 | 220 | 697 | Cc1cc(N2CC(C(=O)O)CC2=O)c(Cl)c(C)c1S(N)(=O)=O (stereo not drawn)
100 | 200 | 2500 | 40 |  | 500 | 140 | 4800 | ≥ 200000 | 330 |  | 140 |  | Cc1cc(N2CC(C(=O)NN)CC2=O)c(Cl)c(C)c1S(N)(=O)=O (stereo not drawn)
63 | 67 | 560 |  |  | 340 | 7.7 | 920 | ≥ 200000 | 200 | 1400 | 50 |  | Cc1cc(N2CC(C(=O)N/N=C/c3ccc(Br)cc3)CC2=O)c(Cl)c(C)c1S(N)(=O)=O (stereo not drawn)
51 | 200 | 210 |  |  | 400 | 190 | 3700 | ≥ 200000 | 38 | 3500 | 87 |  | NS(=O)(=O)c1ccc(NC(=O)C2CC(=O)N(c3ccccc3Br)C2)cc1 (stereo not drawn)

— ChEMBL document CHEMBL4308907, “Pyrrolidinone-bearing methylated and halogenated benzenesulfonamides as inhibitors of carbonic anhydrases” (Bioorg Med Chem, 2019)
